Results taken from patent US6878705B2 (dated 2005).

Structure (SMILES) | melting point
CN(Cc1cc2c(=O)c(C(=O)NCc3ccc(C(F)(F)F)cc3)cn(C)c2o1)C[C@@H](O)c1ccco1 | 113 to 115 °C
O=C(NCc1ccc(Cl)cc1)c1cn(CCc2ccccc2)c2oc(CN3CCOCC3)cc2c1=O | 150 to 153 °C
CCN(CC)CCn1cc(C(=O)NCc2ccc(Cl)cc2)c(=O)c2cc(CN3CCOCC3)oc21 | 131 to 134 °C
CN(Cc1cc2c(=O)c(C(=O)NCc3ccc(Cl)cc3)cn(C)c2o1)CC(O)c1ccccc1 (stereo not shown) | 118 to 121 °C
CN(Cc1cc2c(=O)c(C(=O)NCc3ccc(Cl)cc3)cn(C)c2o1)CC(O)c1ccc(O)cc1 (stereo not shown) | 117 to 122 °C
COc1cccc(C(O)CN(C)Cc2cc3c(=O)c(C(=O)NCc4ccc(Cl)cc4)cn(C)c3o2)c1 (stereo not shown) | 116 to 120 °C
CN(Cc1cc2c(=O)c(C(=O)NCc3ccc(Cl)cc3)cn(C)c2o1)CC(O)c1cccnc1 (stereo not shown) | 145 to 149 °C
CN(Cc1cc2c(=O)c(C(=O)NCc3ccc(Cl)cc3)cn(C)c2o1)CC(O)c1cc2ccccc2o1 (stereo not shown) | 176 to 179 °C
CN(Cc1cc2c(=O)c(C(=O)NCc3ccc(Cl)cc3)cn(C)c2o1)CC(O)c1ccc2ccccc2n1 (stereo not shown) | 154 to 159 °C (dec.)
CN(Cc1cc2c(=O)c(C(=O)NCc3ccc(Cl)cc3)cn(C)c2o1)CC(O)c1ccc(C#N)s1 (stereo not shown) | 190 to 195 °C (dec.)
CN(Cc1cc2c(=O)c(C(=O)NCc3ccc(Cl)cc3)cn(C)c2o1)CC(O)c1ccc(-c2ccccc2)o1 (stereo not shown) | 115 to 119 °C
Cc1cc(C(O)CN(C)Cc2cc3c(=O)c(C(=O)NCc4ccc(Cl)cc4)cn(C)c3o2)oc1C (stereo not shown) | 140 to 140.5 °C
CN(Cc1cc2c(=O)c(C(=O)NCc3ccc(Cl)cc3)cn(C)c2o1)CC(O)c1cnccn1 (stereo not shown) | 148 to 151 °C
CN(Cc1cc2c(=O)c(C(=O)NCc3ccc(Cl)cc3)cn(C)c2o1)CC(CO)c1ccccc1 (stereo not shown) | 141 to 148 °C
Cn1cc(C(=O)NCc2ccc(Cl)cc2)c(=O)c2cc(C#CCC(O)c3ccccc3)oc21 (stereo not shown) | 202 to 203 °C (dec.)
O=C(NCc1ccc(Cl)cc1)c1cc2c(O)c(C(=O)NCc3ccc(Cl)cc3)cnc2o1 | 230 to 245 °C
Cn1cc(C(=O)NCc2ccc(Cl)cc2)c(=O)c2cc(CN3CCC[C@@H]3[C@@H](O)c3ccccc3)oc21 (relative stereo) | 141 to 150 °C (dec.)

Next, values leading:

melting point | Structure (SMILES)
211 to 212 °C | Cn1cc(C(=O)NCc2ccc(Cl)cc2)c(=O)c2cc(CN3CCOCC3)oc21
172 to 173 °C | CC(O)CNCc1cc2c(=O)c(C(=O)NCc3ccc(Cl)cc3)cn(C)c2o1 (stereo not shown)
152 °C | CC(O)CN(C)Cc1cc2c(=O)c(C(=O)NCc3ccc(Cl)cc3)cn(C)c2o1 (stereo not shown)
189 to 190 °C | Cn1cc(C(=O)NCc2ccc(Cl)cc2)c(=O)c2cc(CN3CC[C@@H](O)C3)oc21
130 to 132 °C | Cc1ccc(C(O)CN(C)Cc2cc3c(=O)c(C(=O)NCc4ccc(Cl)cc4)cn(C)c3o2)o1 (stereo not shown)
93 to 97 °C | CN(Cc1cc2c(=O)c(C(=O)NCc3ccc(Cl)cc3)cn(C)c2o1)CC(O)c1ccoc1 (stereo not shown)
145 to 147 °C | CN(Cc1cc2c(=O)c(C(=O)NCc3ccc(Cl)cc3)cn(C)c2o1)CC(O)c1cccs1 (stereo not shown)
122 to 124 °C (dec.) | CN(Cc1cc2c(=O)c(C(=O)NCc3ccc(Cl)cc3)cn(C)c2o1)CC(O)c1cccn1C (stereo not shown)
114 to 116 °C | CN(Cc1cc2c(=O)c(C(=O)NCc3ccc(Cl)cc3)cn(C)c2o1)CC(O)c1nccs1 (stereo not shown)
127 to 129 °C | CN(Cc1cc2c(=O)c(C(=O)NCc3ccc(Cl)cc3)cn(C)c2o1)C[C@@H](O)c1ncccn1
197 to 205 °C | Cn1cc(C(=O)NCc2ccc(Cl)cc2)c(=O)c2ccoc21
232 to 233 °C | Cn1cc(C(=O)NCc2ccc(Cl)cc2)c(=O)c2cc(Br)oc21
242 to 243 °C (dec.) | Cn1cc(C(=O)NCc2ccc(Cl)cc2)c(=O)c2cc(C#CCCO)oc21
157 to 160 °C | Cn1cc(C(=O)NCc2ccc(Cl)cc2)c(=O)c2cc(CCCCO)oc21
215 to 219 °C (dec.) | Cn1cc(C(=O)NCc2ccc(Cl)cc2)c(=O)c2cc(C#CCCCO)oc21
151 to 152 °C | Cn1cc(C(=O)NCc2ccc(Cl)cc2)c(=O)c2cc(CCCCCO)oc21
209 to 211 °C (dec.) | Cn1cc(C(=O)NCc2ccc(Cl)cc2)c(=O)c2cc(C#CC(O)c3ccccc3)oc21 (stereo not shown)
229 to 230 °C | Cn1cc(C(=O)NCc2ccc(Cl)cc2)c(=O)c2cc(CO)oc21
130 to 132 °C | CN(Cc1cc2c(=O)c(C(=O)NCc3ccc(Cl)cc3)cn(C)c2o1)CC(O)c1ccccn1 (stereo not shown) [41]
133 to 138 °C | CN(Cc1cc2c(=O)c(C(=O)NCc3ccc(Cl)cc3)cn(C)c2o1)CC(O)c1ccccn1 (stereo not shown) [42]
